Molecular target: T1, human recombinant HDAC6 (Homo sapiens, UniProt Q9UBN7)
T1 construct: purchased Calbiochem 382180
T1 sequence (Q9UBN7 1-1215): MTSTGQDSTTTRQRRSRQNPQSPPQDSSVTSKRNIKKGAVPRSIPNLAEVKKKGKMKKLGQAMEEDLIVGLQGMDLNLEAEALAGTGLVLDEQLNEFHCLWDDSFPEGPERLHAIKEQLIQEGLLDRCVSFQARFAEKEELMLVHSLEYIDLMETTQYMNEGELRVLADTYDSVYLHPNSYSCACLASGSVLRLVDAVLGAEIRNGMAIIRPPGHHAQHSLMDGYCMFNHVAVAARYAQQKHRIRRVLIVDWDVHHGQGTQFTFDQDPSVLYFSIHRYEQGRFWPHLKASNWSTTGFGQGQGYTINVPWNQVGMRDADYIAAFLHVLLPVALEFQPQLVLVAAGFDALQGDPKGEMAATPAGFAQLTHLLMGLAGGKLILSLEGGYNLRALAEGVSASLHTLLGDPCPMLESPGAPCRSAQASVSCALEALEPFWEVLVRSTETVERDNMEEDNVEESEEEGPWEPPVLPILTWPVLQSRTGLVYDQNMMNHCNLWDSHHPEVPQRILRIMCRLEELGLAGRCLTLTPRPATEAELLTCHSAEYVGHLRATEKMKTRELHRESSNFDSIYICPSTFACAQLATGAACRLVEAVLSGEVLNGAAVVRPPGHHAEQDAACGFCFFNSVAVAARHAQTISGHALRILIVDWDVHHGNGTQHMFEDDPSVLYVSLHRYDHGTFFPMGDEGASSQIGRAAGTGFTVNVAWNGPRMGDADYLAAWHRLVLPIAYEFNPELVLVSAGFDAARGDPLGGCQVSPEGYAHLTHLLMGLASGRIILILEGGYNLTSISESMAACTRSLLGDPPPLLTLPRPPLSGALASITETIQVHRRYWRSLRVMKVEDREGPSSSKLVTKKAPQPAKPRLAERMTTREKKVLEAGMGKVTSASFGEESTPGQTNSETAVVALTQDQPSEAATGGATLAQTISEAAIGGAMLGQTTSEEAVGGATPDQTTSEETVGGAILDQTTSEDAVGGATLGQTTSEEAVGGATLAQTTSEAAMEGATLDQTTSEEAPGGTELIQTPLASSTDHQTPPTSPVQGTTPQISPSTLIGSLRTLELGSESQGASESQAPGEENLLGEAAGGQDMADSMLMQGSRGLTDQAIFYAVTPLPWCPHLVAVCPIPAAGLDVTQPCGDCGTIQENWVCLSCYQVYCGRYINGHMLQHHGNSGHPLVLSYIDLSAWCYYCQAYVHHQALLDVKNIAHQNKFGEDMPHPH
Assay: HDAC6 enzyme activity inhibition assay (HDAC Fluorimetric Drug Discovery Kit)
Type: biochemical
Conditions: for HDAC6 selectivity (fold): HDAC6 over HDAC1; for IC50: human recombinant HDAC6, same protocol as HDAC1, read-out: HDAC6
Procedure, shortened: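 Human recombinant HDAC1 or HDAC6 (0.3 μg) reacted with 10 μM Fluor de Lys-SIRT1 substrate and 5-fold compound dilutions for 60 min at 30 °C. Developer II added for 30 min, fluorescence read at Ex 360/Em 460; IC50 calculated from the readings.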

| Structure (SMILES) | HDAC6 selectivity (fold) | IC50 [nM] |
| --- | --- | --- |
| CC1(C)Cc2cccc(N(Cc3ccc(-c4nnc(C(F)F)o4)cc3F)C(=O)N3CCS(=O)(=O)CC3)c2O1 [Compound 21798, N-(4-(5-(Difluoromethyl)-1,3,4-oxadiazol-2-yl)-2-fluorobenzyl)-N-(2,2-dimethyl-2,3-dihydrobenzofuran-7-yl)thiomorpholine-4-carboxamide 1,1-dioxide] | 8 | 1320 |
| O=C(N1CCN(c2ccccn2)CC1)N(Cc1ccc(-c2nnc(C(F)(F)F)o2)cc1)c1ccccc1 [Compound 21403, N-phenyl-4-(pyridin-2-yl)-N-(4-(5-(trifluoromethyl)-1,3,4-oxadiazol-2-yl)benzyl)piperazine-1-carboxamide] | 30 | 334 |
| CCN(Cc1ccc(-c2nnc(C(F)(F)F)o2)cc1)C(=O)N1CCOCC1 [Compound 21399, N-ethyl-N-(4-(5-(trifluoromethyl)-1,3,4-oxadiazol-2-yl)benzyl)morpholine-4-carboxamide] | 13 | 780 |
| CC(C)(C)c1ccc(N(Cc2ccc(-c3nnc(C(F)(F)F)o3)cc2)C(=O)N2CCS(=O)(=O)CC2)cc1 [Compound 21458, N-(4-(tert-butyl)phenyl)-N-(4-(5-(trifluoromethyl)-1,3,4-oxadiazol-2-yl)benzyl)thiomorpholine-4-carboxamide 1,1-dioxide] | 1 |  |
| C[C@@H]1CN(C(=O)N(Cc2ccc(-c3nnc(C(F)(F)F)o3)cc2)c2ccccc2)C[C@H](C)N1S(C)(=O)=O [Compound 21388, (3R,5S)-3,5-Dimethyl-4-(methylsulfonyl)-N-phenyl-N-(4-(5-(trifluoromethyl)-1,3,4-oxadiazol-2-yl)benzyl)piperazine-1-carboxamide] | 42 | 240 |
| O=C(N1CCC2(CC1)CNC2)N(Cc1ccc(-c2nnc(C(F)(F)F)o2)cc1)c1ccccc1 [Compound 21417, N-phenyl-N-(4-(5-(trifluoromethyl)-1,3,4-oxadiazol-2-yl)benzyl)-2,7-diazaspiro[3.5]nonane-7-carboxamide] | 143 | 70 |
| CC(C)C(=O)N1CCN(C(=O)N(Cc2ccc(-c3nnc(C(F)(F)F)o3)cc2)c2ccccc2)CC1 [Compound 21365, 4-Isobutyryl-N-phenyl-N-(4-(5-(trifluoromethyl)-1,3,4-oxadiazol-2-yl)benzyl)piperazine-1-carboxamide] | 69 | 145 |
| O=C(N1CCOCC1)N(Cc1ccc(CCc2nnc(C(F)(F)F)o2)cc1)c1ccccc1 [Compound 21327, N-phenyl-N-(4-(2-(5-(trifluoromethyl)-1,3,4-oxadiazol-2-yl)ethyl)benzyl)morpholine-4-carboxamide] | 1 |  |
| O=C(N1CCS(=O)(=O)CC1)N(Cc1ccc(-c2nnc(C(F)F)o2)cc1)c1ccccc1F [Compound 21448, N-(4-(5-(difluoromethyl)-1,3,4-oxadiazol-2-yl)benzyl)-N-(2-fluorophenyl)thiomorpholine-4-carboxamide 1,1-dioxide] | 278 | 36 |
| COc1ccccc1N(Cc1ccc(-c2nnc(C(F)(F)F)o2)cc1)C(=O)N1CCS(=O)(=O)CC1 [Compound 21440, N-(2-methoxyphenyl)-N-(4-(5-(trifluoromethyl)-1,3,4-oxadiazol-2-yl)benzyl)thiomorpholine-4-carboxamide 1,1-dioxide] | 37 | 267 |
| O=C(N1CCS(=O)(=O)CC1)N(Cc1ccc(-c2nnc(C(F)F)o2)cc1F)c1ccc(CN2CCN(CC(F)(F)F)CC2)cc1 [Compound 21902, N-(4-(5-(difluoromethyl)-1,3,4-oxadiazol-2-yl)-2-fluorobenzyl)-N-(4-((4-(2,2,2-trifluoroethyl)piperazin-1-yl)methyl)phenyl)thiomorpholine-4-carboxamide 1,1-dioxide] | 25 | 398 |
| CN1CCN(C(=O)N(Cc2ccc(-c3nnc(C(F)F)o3)cc2F)c2cccc(-c3ccc4c(cnn4C)c3)c2)CC1 [Compound 21537, N-(4-(5-(difluoromethyl)-1,3,4-oxadiazol-2-yl)-2-fluorobenzyl)-4-methyl-N-(3-(1-methyl-1H-indazol-5-yl)phenyl)piperazine-1-carboxamide] | 145 | 69 |

Second part, the compound after the results:

| HDAC6 selectivity (fold) | IC50 [nM] | Structure (SMILES) |
| --- | --- | --- |
| 118 | 85 | O=C(N1CCN(C2COC2)CC1)N(Cc1ccc(-c2nnc(C(F)F)o2)cc1F)c1ccc(F)cc1 [Compound 21940, N-(4-(5-(Difluoromethyl)-1,3,4-oxadiazol-2-yl)-2-fluorobenzyl)-N-(4-fluorophenyl)-4-(oxetan-3-yl)piperazine-1-carboxamide] |
| 192 | 52 | CN(C)[C@H]1CCN(C(=O)N(Cc2ccc(-c3nnc(C(F)F)o3)cn2)c2ccc(F)c(Cl)c2)C1 [Compound 21601, (S)—N-(3-chloro-4-fluorophenyl)-N-((5-(5-(difluoromethyl)-1,3,4-oxadiazol-2-yl)pyridin-2-yl)methyl)-3-(dimethylamino)pyrrolidine-1-carboxamide] |
| 455 | 22 | O=C(N1CC2(COC2)C1)N(Cc1ccc(-c2nnc(C(F)F)o2)cc1F)c1ccccc1 [Compound 21522, N-(4-(5-(difluoromethyl)-1,3,4-oxadiazol-2-yl)-2-fluorobenzyl)-N-phenyl-2-oxa-6-azaspiro[3.3]heptane-6-carboxamide] |
| 323 | 31 | COc1cccc(N(Cc2ccc(-c3nnc(C(F)F)o3)cc2F)C(=O)N2CCS(=O)(=O)CC2)c1 [Compound 21482, N-(4-(5-(difluoromethyl)-1,3,4-oxadiazol-2-yl)-2-fluorobenzyl)-N-(3-methoxyphenyl)thiomorpholine-4-carboxamide 1,1-dioxide] |
| 461 | 22 | O=C(N1CCOCC1)N(Cc1ccc(-c2nnc(C(F)F)o2)cn1)c1cccc(F)c1 [Compound 21843, N-((5-(5-(difluoromethyl)-1,3,4-oxadiazol-2-yl)pyridin-2-yl)methyl)-N-(3-fluorophenyl) morpholine-4-carboxamide] |
| 217 | 46 | COc1ccccc1N(Cc1ccc(-c2nnc(C(F)F)o2)cc1F)C(=O)N1CCN(C)CC1 [Compound 21472, N-(4-(5-(difluoromethyl)-1,3,4-oxadiazol-2-yl)-2-fluorobenzyl)-N-(2-methoxyphenyl)-4-methylpiperazine-1-carboxamide] |
| 176 | 57 | O=C(N1CCOCC1)N(Cc1ccc(-c2nnc(C(F)F)o2)cc1F)c1ccc(F)c(Cl)c1 [Compound 21929, N-(3-chloro-4-fluorophenyl)-N-(4-(5-(difluoromethyl)-1,3,4-oxadiazol-2-yl)-2-fluorobenzyl)morpholine-4-carboxamide] |
| 407 | 25 | O=C(N1CCOCC1)N(Cc1ccc(-c2nnc(C(F)F)o2)cn1)c1cccc(Cl)c1 [Compound 21851, N-(3-chlorophenyl)-N-((5-(5-(difluoromethyl)-1,3,4-oxadiazol-2-yl)pyridin-2-yl)methyl) morpholine-4-carboxamide] |

— patent US10717716B2, “1,3,4-oxadiazole derivative compounds as histone deacetylase 6 inhibitor, and the pharmaceutical composition comprising the same” (Chong Kun Dang Pharmaceutical Corp., priority 2015, dated 2020)
